How the values were obtained:
Format in all cases: in vivo
Zea mays (ZEAMX) [1] = test: Pre-emergence Test (glasshouse, percentage damage to the plant); settings: 1000 g/ha unless otherwise stated, five-point scale
Setaria faberi (SETFA) [2] = test: Post-emergence Test (glasshouse, percentage damage to the plant); settings: post-emergence spray, 1000 g/ha unless otherwise stated, evaluated after 13 days
In short: (§1)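 Seeds are sown in standard soil under controlled glasshouse conditions. The pots are then sprayed at 1000 g/ha, unless otherwise stated, with compound in acetone/water (50:50) containing 0.5% Tween 20. After 13 days further growth, percentage plant damage is scored from 1 (0-20%) to 5 (81-100%).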

Zea mays (ZEAMX) [3] = test: as above; settings: post-emergence spray, 1000 g/ha unless otherwise stated, evaluated after 13 days
In short: as §1

[4] = test system: Echinochloa crus-galli (ECHCG); test: as above; settings: post-emergence spray, 1000 g/ha unless otherwise stated, evaluated after 13 days
In short: (§2)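 Damage was rated 13 days after treatment and expressed on a five-point scale: 5=81-100%, 4=61-80%, 3=41-60%, 2=21-40%, 1=0-20%. Spray was applied at 1000 g/ha unless otherwise stated, from acetone/water (50:50) with 0.5% Tween 20, to sown pots.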

[5] = test system: Ipomoea hederacea (IPOHE); test: as above; settings: post-emergence spray, 1000 g/ha unless otherwise stated, evaluated after 13 days
In short: as §1

[6] = test system: Abutilon theophrasti (ABUTH); test: as above; settings: post-emergence spray, 1000 g/ha unless otherwise stated, evaluated after 13 days
In short: as §2

[7] = test system: Amaranthus retoflexus (AMARE); test: as above; settings: post-emergence spray, 1000 g/ha unless otherwise stated, evaluated after 13 days
In short: as §2

[8] = test system: Echinochloa crus-galli (ECHCG); test: Pre-emergence Test (glasshouse, percentage damage to the plant); settings: 1000 g/ha unless otherwise stated, five-point scale
[9] = test system: Abutilon theophrasti (ABUTH); test: as above; settings: 1000 g/ha unless otherwise stated, five-point scale
[10] = test system: Ipomoea hederacea (IPOHE); test: as above; settings: 1000 g/ha unless otherwise stated, five-point scale
[11] = test system: Amaranthus retoflexus (AMARE); test: as above; settings: 1000 g/ha unless otherwise stated, five-point scale
Setaria faberi (SETFA) [12] = test: as above; settings: 1000 g/ha unless otherwise stated, five-point scale

Structure (SMILES): CCn1c(C)c(-c2cccc(SC)c2)c(=O)c(C(=O)O)c1-c1ccc(Cl)c(Cl)c1 [Compound 114, 2-(3,4-dichlorophenyl)-1-ethyl-6-methyl-5-(3-methylsulfanylphenyl)-4-oxo-pyridine-3-carboxylic acid]
- percentage damage to the plant, ZEAMX (Zea mays (ZEAMX) [1]): 1 (1=0-20%)
- Post-emergence Test SETFA, percentage damage to the plant (five-point scale) (Setaria faberi (SETFA) [2]): 1 (1=0-20%)
- Post-emergence Test ZEAMX, percentage damage to the plant (five-point scale) (Zea mays (ZEAMX) [3]): 1 (1=0-20%)
- Post-emergence Test ECHCG, percentage damage to the plant (five-point scale) [4]: 1 (1=0-20%)
- Post-emergence Test IPOHE, percentage damage to the plant (five-point scale) [5]: 1 (1=0-20%)
- Post-emergence Test ABUTH, percentage damage to the plant (five-point scale) [6]: 1 (1=0-20%)
- Post-emergence Test AMARE, percentage damage to the plant (five-point scale) [7]: 1 (1=0-20%)
- percentage damage to the plant, ECHCG [8]: 1 (1=0-20%)
- percentage damage to the plant, ABUTH [9]: 1 (1=0-20%)
- percentage damage to the plant, IPOHE [10]: 1 (1=0-20%)
- percentage damage to the plant, AMARE [11]: 1 (1=0-20%)
- percentage damage to the plant, SETFA (Setaria faberi (SETFA) [12]): 1 (1=0-20%)

Structure (SMILES): CCn1c(C)c(-c2ccc(Cl)cc2)c(=O)c(C(=O)O)c1-c1ccc(F)c(F)c1 [Compound 128, 5-(4-chlorophenyl)-2-(3,4-difluorophenyl)-1-ethyl-6-methyl-4-oxo-pyridine-3-carboxylic acid]
- percentage damage to the plant, ZEAMX (Zea mays (ZEAMX) [1]): 2 (2=21-40%)
- Post-emergence Test SETFA, percentage damage to the plant (five-point scale) (Setaria faberi (SETFA) [2]): 4 (4=61-80%)
- Post-emergence Test ZEAMX, percentage damage to the plant (five-point scale) (Zea mays (ZEAMX) [3]): 3 (3=41-60%)
- Post-emergence Test ECHCG, percentage damage to the plant (five-point scale) [4]: 3 (3=41-60%)
- Post-emergence Test IPOHE, percentage damage to the plant (five-point scale) [5]: 2 (2=21-40%)
- Post-emergence Test ABUTH, percentage damage to the plant (five-point scale) [6]: 4 (4=61-80%)
- Post-emergence Test AMARE, percentage damage to the plant (five-point scale) [7]: 3 (3=41-60%)
- percentage damage to the plant, ECHCG [8]: 2 (2=21-40%)
- percentage damage to the plant, ABUTH [9]: 3 (3=41-60%)
- percentage damage to the plant, IPOHE [10]: 1 (1=0-20%)
- percentage damage to the plant, AMARE [11]: 4 (4=61-80%)
- percentage damage to the plant, SETFA (Setaria faberi (SETFA) [12]): 5 (5=81-100%)

Structure (SMILES): CCn1c(C)c(-c2ccc(Cl)cc2)c(=O)c(C(=O)O)c1-c1ccc(Br)c(F)c1 [Compound 129, 2-(4-bromo-3-fluoro-phenyl)-5-(4-chlorophenyl)-1-ethyl-6-methyl-4-oxo-pyridine-3-carboxylic acid]
- percentage damage to the plant, ZEAMX (Zea mays (ZEAMX) [1]): 1 (1=0-20%)
- Post-emergence Test SETFA, percentage damage to the plant (five-point scale) (Setaria faberi (SETFA) [2]): 3 (3=41-60%)
- Post-emergence Test ZEAMX, percentage damage to the plant (five-point scale) (Zea mays (ZEAMX) [3]): 2 (2=21-40%)
- Post-emergence Test ECHCG, percentage damage to the plant (five-point scale) [4]: 2 (2=21-40%)
- Post-emergence Test IPOHE, percentage damage to the plant (five-point scale) [5]: 3 (3=41-60%)
- Post-emergence Test ABUTH, percentage damage to the plant (five-point scale) [6]: 3 (3=41-60%)
- Post-emergence Test AMARE, percentage damage to the plant (five-point scale) [7]: 3 (3=41-60%)
- percentage damage to the plant, ECHCG [8]: 2 (2=21-40%)
- percentage damage to the plant, ABUTH [9]: 2 (2=21-40%)
- percentage damage to the plant, IPOHE [10]: 2 (2=21-40%)
- percentage damage to the plant, AMARE [11]: 5 (5=81-100%)
- percentage damage to the plant, SETFA (Setaria faberi (SETFA) [12]): 5 (5=81-100%)

Structure (SMILES): CCn1c(C)c(-c2ccc(Cl)cc2)c(=O)c(C(=O)O)c1-c1ccc(F)cc1F [Compound 130, 5-(4-chlorophenyl)-2-(2,4-difluorophenyl)-1-ethyl-6-methyl-4-oxo-pyridine-3-carboxylic acid]
- percentage damage to the plant, ZEAMX (Zea mays (ZEAMX) [1]): 3 (3=41-60%)
- Post-emergence Test SETFA, percentage damage to the plant (five-point scale) (Setaria faberi (SETFA) [2]): 4 (4=61-80%)
- Post-emergence Test ZEAMX, percentage damage to the plant (five-point scale) (Zea mays (ZEAMX) [3]): 2 (2=21-40%)
- Post-emergence Test ECHCG, percentage damage to the plant (five-point scale) [4]: 3 (3=41-60%)
- Post-emergence Test IPOHE, percentage damage to the plant (five-point scale) [5]: 3 (3=41-60%)
- Post-emergence Test ABUTH, percentage damage to the plant (five-point scale) [6]: 3 (3=41-60%)
- Post-emergence Test AMARE, percentage damage to the plant (five-point scale) [7]: 3 (3=41-60%)
- percentage damage to the plant, ECHCG [8]: 4 (4=61-80%)
- percentage damage to the plant, ABUTH [9]: 3 (3=41-60%)
- percentage damage to the plant, IPOHE [10]: 3 (3=41-60%)
- percentage damage to the plant, AMARE [11]: 3 (3=41-60%)
- percentage damage to the plant, SETFA (Setaria faberi (SETFA) [12]): 5 (5=81-100%)

Structure (SMILES): CCn1c(C)c(-c2ccc(Cl)cc2)c(=O)c(C(=O)O)c1-c1ccc(Cl)cn1 [Compound 131, 5-(4-chlorophenyl)-2-(5-chloro-2-pyridyl)-1-ethyl-6-methyl-4-oxo-pyridine-3-carboxylic acid]
- percentage damage to the plant, ZEAMX (Zea mays (ZEAMX) [1]): 0
- Post-emergence Test SETFA, percentage damage to the plant (five-point scale) (Setaria faberi (SETFA) [2]): 3 (3=41-60%)
- Post-emergence Test ZEAMX, percentage damage to the plant (five-point scale) (Zea mays (ZEAMX) [3]): 2 (2=21-40%)
- Post-emergence Test ECHCG, percentage damage to the plant (five-point scale) [4]: 0
- Post-emergence Test IPOHE, percentage damage to the plant (five-point scale) [5]: 1 (1=0-20%)
- Post-emergence Test ABUTH, percentage damage to the plant (five-point scale) [6]: 1 (1=0-20%)
- Post-emergence Test AMARE, percentage damage to the plant (five-point scale) [7]: 1 (1=0-20%)
- percentage damage to the plant, ECHCG [8]: 0
- percentage damage to the plant, ABUTH [9]: 0
- percentage damage to the plant, IPOHE [10]: 0
- percentage damage to the plant, AMARE [11]: 0
- percentage damage to the plant, SETFA (Setaria faberi (SETFA) [12]): 0

Structure (SMILES): CCn1c(-c2ccc(Cl)c(Cl)c2)c(C(=O)O)c(=O)c(-c2ccc(Cl)cc2)c1C(F)(F)F [Compound 132, 5-(4-chlorophenyl)-2-(3,4-dichlorophenyl)-1-ethyl-4-oxo-6-(trifluoromethyl) pyridine-3-carboxylic acid]
- percentage damage to the plant, ZEAMX (Zea mays (ZEAMX) [1]): 0
- Post-emergence Test SETFA, percentage damage to the plant (five-point scale) (Setaria faberi (SETFA) [2]): 0
- Post-emergence Test ZEAMX, percentage damage to the plant (five-point scale) (Zea mays (ZEAMX) [3]): 1 (1=0-20%)
- Post-emergence Test ECHCG, percentage damage to the plant (five-point scale) [4]: 0
- Post-emergence Test IPOHE, percentage damage to the plant (five-point scale) [5]: 4 (4=61-80%)
- Post-emergence Test ABUTH, percentage damage to the plant (five-point scale) [6]: 3 (3=41-60%)
- Post-emergence Test AMARE, percentage damage to the plant (five-point scale) [7]: 5 (5=81-100%)
- percentage damage to the plant, ECHCG [8]: 0
- percentage damage to the plant, ABUTH [9]: 4 (4=61-80%)
- percentage damage to the plant, IPOHE [10]: 2 (2=21-40%)
- percentage damage to the plant, AMARE [11]: 5 (5=81-100%)
- percentage damage to the plant, SETFA (Setaria faberi (SETFA) [12]): 0

Structure (SMILES): CCOC(=O)c1c(-c2ccc(F)cc2F)n(CC)c(C)c(-c2ccc(Cl)cc2)c1=O [Compound 134, ethyl 5-(4-chlorophenyl)-2-(2,4-difluorophenyl)-1-ethyl-6-methyl-4-oxo-pyridine-3-carboxylate]
- percentage damage to the plant, ZEAMX (Zea mays (ZEAMX) [1]): 0
- Post-emergence Test SETFA, percentage damage to the plant (five-point scale) (Setaria faberi (SETFA) [2]): 4 (4=61-80%)
- Post-emergence Test ZEAMX, percentage damage to the plant (five-point scale) (Zea mays (ZEAMX) [3]): 3 (3=41-60%)
- Post-emergence Test ECHCG, percentage damage to the plant (five-point scale) [4]: 4 (4=61-80%)
- Post-emergence Test IPOHE, percentage damage to the plant (five-point scale) [5]: 3 (3=41-60%)
- Post-emergence Test ABUTH, percentage damage to the plant (five-point scale) [6]: 3 (3=41-60%)
- Post-emergence Test AMARE, percentage damage to the plant (five-point scale) [7]: 3 (3=41-60%)
- percentage damage to the plant, ECHCG [8]: 0
- percentage damage to the plant, ABUTH [9]: 1 (1=0-20%)
- percentage damage to the plant, IPOHE [10]: 0
- percentage damage to the plant, AMARE [11]: 1 (1=0-20%)
- percentage damage to the plant, SETFA (Setaria faberi (SETFA) [12]): 0

Structure (SMILES): CCn1c(C)c(-c2ccccc2)c(=O)c(C(=O)O)c1-c1ccc(F)cc1F [Compound 135, 2-(2,4-difluorophenyl)-1-ethyl-6-methyl-4-oxo-5-phenyl-pyridine-3-carboxylic acid]
- percentage damage to the plant, ZEAMX (Zea mays (ZEAMX) [1]): 0
- Post-emergence Test SETFA, percentage damage to the plant (five-point scale) (Setaria faberi (SETFA) [2]): 0
- Post-emergence Test ZEAMX, percentage damage to the plant (five-point scale) (Zea mays (ZEAMX) [3]): 0
- Post-emergence Test ECHCG, percentage damage to the plant (five-point scale) [4]: 0
- Post-emergence Test IPOHE, percentage damage to the plant (five-point scale) [5]: 1 (1=0-20%)
- Post-emergence Test ABUTH, percentage damage to the plant (five-point scale) [6]: 1 (1=0-20%)
- Post-emergence Test AMARE, percentage damage to the plant (five-point scale) [7]: 2 (2=21-40%)
- percentage damage to the plant, ECHCG [8]: 2 (2=21-40%)
- percentage damage to the plant, ABUTH [9]: 3 (3=41-60%)
- percentage damage to the plant, IPOHE [10]: 3 (3=41-60%)
- percentage damage to the plant, AMARE [11]: 1 (1=0-20%)
- percentage damage to the plant, SETFA (Setaria faberi (SETFA) [12]): 5 (5=81-100%)
